Assay results from ChEMBL document CHEMBL1152170 (Bioorg Med Chem Lett, 2008).

How the values were obtained:
[1] = Permeability across human Caco-2 cells; type: ADME, cell-based; conditions: read-out: permeability
[2] = Stability in rabbit liver microsome after 1 hr; type: ADME, Oryctolagus cuniculus; conditions: liver microsomes, read-out: Stability

| SMILES | Papp [1] [×10⁻⁶ cm/s] | remaining at 1 h [2] [%] |
| --- | --- | --- |
| COc1ccc(CNc2ncnc3c(CCO)c(OC)c(NC(C)=O)cc23)cc1Cl | 17.3 | – |
| CCCc1c(OC)c(NC(=O)C(F)(F)F)cc2c(NCc3ccc(OC)c(Cl)c3)ncnc12 | – | > 80 |
| CCC(=O)Nc1cc2c(NCc3ccc(OC)c(Cl)c3)ncnc2c(CCO)c1OC | 46.9 | > 80 |
